Assay results published in ChEMBL document CHEMBL3627662, “Ligand-Orientation Based Fragment Selection in STD NMR Screening” (J Med Chem, 2015).
Activity calls are given as the source filed them. The rule behind the calls is not given here.

Legend:
[1] = target: T1, Peroxiredoxin-5, mitochondrial (Homo sapiens) (UniProt P30044); assay: Binding affinity to human PRDX5 expressed in Escherichia coli at ligand/protein ratio 120 measured over 0.5 to 4 secs by STD NMR spectrometric analysis
T1 sequence (whole entry): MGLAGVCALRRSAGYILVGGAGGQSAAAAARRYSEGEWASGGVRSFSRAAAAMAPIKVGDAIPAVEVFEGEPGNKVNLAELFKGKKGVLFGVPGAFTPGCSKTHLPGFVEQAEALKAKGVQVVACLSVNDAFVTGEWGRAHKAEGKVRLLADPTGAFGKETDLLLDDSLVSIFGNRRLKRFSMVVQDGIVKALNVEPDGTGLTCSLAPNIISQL

[2] = target: T1, Peroxiredoxin-5, mitochondrial (Homo sapiens); assay: Binding affinity to human PRDX5 expressed in Escherichia coli at ligand/protein ratio 50 and 240 measured over 2 secs by STD NMR spectrometric analysis
[3] = target: T2, Glycogen phosphorylase, muscle form (Oryctolagus cuniculus) (UniProt P00489); assay: Binding affinity to rabbit muscle glycogen phosphorylase measured for 0.5 to 4 secs by STD NMR spectrometric analysis
T2 sequence (whole entry): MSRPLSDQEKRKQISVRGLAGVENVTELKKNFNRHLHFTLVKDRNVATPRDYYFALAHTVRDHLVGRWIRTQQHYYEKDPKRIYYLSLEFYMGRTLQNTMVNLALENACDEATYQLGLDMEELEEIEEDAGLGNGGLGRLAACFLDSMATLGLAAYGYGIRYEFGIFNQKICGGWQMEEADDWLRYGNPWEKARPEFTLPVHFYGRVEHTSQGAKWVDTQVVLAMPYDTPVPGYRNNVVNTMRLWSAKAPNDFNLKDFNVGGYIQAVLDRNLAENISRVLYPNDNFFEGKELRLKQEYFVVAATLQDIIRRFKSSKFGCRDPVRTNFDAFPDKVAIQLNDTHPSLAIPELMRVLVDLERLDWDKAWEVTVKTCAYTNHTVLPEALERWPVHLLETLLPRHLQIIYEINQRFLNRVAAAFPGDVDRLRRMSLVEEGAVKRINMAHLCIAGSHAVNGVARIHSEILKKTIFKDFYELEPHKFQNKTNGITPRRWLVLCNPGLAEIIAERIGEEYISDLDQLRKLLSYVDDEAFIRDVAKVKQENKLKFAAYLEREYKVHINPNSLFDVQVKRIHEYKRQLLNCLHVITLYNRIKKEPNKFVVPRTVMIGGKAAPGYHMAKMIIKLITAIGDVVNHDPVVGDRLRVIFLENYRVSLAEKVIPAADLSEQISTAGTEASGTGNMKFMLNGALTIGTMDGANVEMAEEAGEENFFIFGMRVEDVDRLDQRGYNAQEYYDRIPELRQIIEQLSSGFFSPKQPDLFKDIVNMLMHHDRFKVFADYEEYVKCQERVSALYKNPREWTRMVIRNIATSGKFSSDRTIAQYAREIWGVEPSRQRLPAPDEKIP

[4] = target: T2, Glycogen phosphorylase, muscle form (Oryctolagus cuniculus); assay: Binding affinity to rabbit muscle glycogen phosphorylase by STD NMR spectrometric analysis
[5] = target: Mitogen-activated protein kinase 3 (Homo sapiens) (UniProt P27361); assay: Binding affinity to ERK1 (unknown origin) expressed in Escherichia coli by STD NMR spectrometric analysis
Chain of Mitogen-activated protein kinase 3 (Homo sapiens) (P27361 whole entry): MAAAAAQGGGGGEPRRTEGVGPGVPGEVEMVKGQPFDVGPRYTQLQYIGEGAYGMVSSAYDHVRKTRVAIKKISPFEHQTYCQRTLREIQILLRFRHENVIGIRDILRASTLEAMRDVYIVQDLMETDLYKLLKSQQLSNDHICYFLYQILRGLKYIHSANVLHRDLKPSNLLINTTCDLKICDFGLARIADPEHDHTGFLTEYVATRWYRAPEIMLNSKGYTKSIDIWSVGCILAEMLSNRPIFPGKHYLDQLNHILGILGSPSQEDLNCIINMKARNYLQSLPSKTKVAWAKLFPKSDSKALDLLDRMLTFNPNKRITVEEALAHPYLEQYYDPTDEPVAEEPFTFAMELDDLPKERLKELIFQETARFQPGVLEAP

[6] = target: T1, Peroxiredoxin-5, mitochondrial (Homo sapiens); assay: Binding affinity to human PRDX5 expressed in Escherichia coli by STD NMR spectrometric analysis

Cc1ccc(O)c(O)c1
Activity [1]: Active
Activity [2]: Active

c1ccc2[nH]ccc2c1
Activity [3]: Active

Oc1ccccc1-c1ccccc1
Activity [4]: Active

c1cnc2[nH]ccc2c1
Activity [4]: Active
Activity [5]: Active

Oc1ccccc1Cc1ccccc1O
Activity [6]: Active

Nc1nc2ncnc-2c[nH]1
Activity [4]: Active

O=C(O)c1cnc2ccccc2c1
Activity [4]: Active
